In PubChem BioAssay (NCI):
“And” between values parts separate entries of the source, which are not always exact repeats. Equal entries are not always repeated.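 How tested: cells in 96-well plates exposed to compound for 48 hours at five concentrations. GI50 is the concentration that inhibits growth by half. TGI: concentration producing complete growth inhibition.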

Columns and labels:
Assay in all cases: DTP human tumour cell line panel, 48 h
[1] = system: SK-MEL-28 melanoma
[2] = system: DMS 114 small cell lung
[3] = system: OVCAR-3 ovarian
[4] = system: SNB-78 CNS
[5] = system: IGROV1 ovarian
[6] = system: SN12C renal
[7] = system: LXFL 529 NSCLC
[8] = system: SR leukemia
[9] = system: COLO 205 colon
[10] = system: HS 578T breast

Structure (SMILES)	TGI [1] [µM]	TGI [2]	TGI [3]	TGI [4] [µM]	TGI [5]	TGI [6]	TGI [7]	TGI [8] [µM]	TGI [9] [µM]	GI50 [1] [nM]	GI50 [2] [nM]	GI50 [3] [nM]	GI50 [4] [nM]	GI50 [5] [µM]	GI50 [6] [µM]	GI50 [7] [nM]	GI50 [9] [nM]	GI50 [10] [µM]	TGI [10] [µM]
CC(=O)c1sc(-c2nc(C)c(C(=O)/C=C\c3ccc(/C=C\C(=O)c4sc(-c5nc(C)c(C(C)=O)s5)nc4C)cc3)s2)nc1C	> 100	> 100 µM	> 100 µM	> 100	> 100 µM	> 100 µM	> 100 µM	> 100	> 100										
CC1(C)O/C(=C\c2ccccc2)C(=O)/C(=C/c2ccccc2)O1	> 100	48.1 µM	> 100 µM	> 100	> 100 µM	> 100 µM	> 100 µM	75.3	> 100										
CN[C@@H](C)[C@H](NC)c1ccccc1	> 100	> 100 µM	> 100 µM	> 100	> 100 µM	> 100 µM	> 100 µM		> 100										
Cc1cc(NS(=O)(=O)c2ccc(Nc3c4ccccc4nc4c(C(=O)NCCN(C)C)cccc34)cc2)no1	48.8	14 µM		80.4	22.1 µM	> 100 µM	> 100 µM	> 100	> 100										
COc1cccc(-n2c3nc(=O)n(C)c(=O)c-3nc3ccccc32)c1	61.4	25.4 µM	8.8 µM	> 100	59.6 µM	30.8 µM	81.8 µM		13.1										
COc1ccc(C2c3cc(OC)c(OC)cc3C(Cc3ccc([N+](=O)[O-])cc3)C2c2ccc([N+](=O)[O-])cc2)cc1OC (configuration not stated)	> 100	> 100 µM	> 100 µM	> 100	> 100 µM	> 100 µM	> 100 µM		> 100										
Nc1ccn(C2(CO)C=C(CO)C(O)C2O)c(=O)n1 (configuration not stated)	> 25.8	> 25.8 µM	> 25.8 µM	> 25.8	> 25.8 µM	> 25.8 µM	> 25.8 µM	> 25.8	> 25.8										
[Au+].[Au+].[Au+].[c-]1nccn1Cc1ccccc1.[c-]1nccn1Cc1ccccc1.[c-]1nccn1Cc1ccccc1	6.15	3.13 µM	5.27 µM	8.63	7.92 µM	55.3 µM	3.22 µM		3.16	2710	1650	2330	2840	3.48	8.42	1830	1740	19.8	64
CCCCOC(=O)NC(=O)c1cn(CCCOC(=O)NCCCCCCNC(=O)OCCCn2cc(C(=O)NC(=O)OCCCC)c(=O)[nH]c2=O)c(=O)[nH]c1=O	> 100	> 100 µM	> 100 µM	> 100	> 100 µM	> 100 µM	> 100 µM	> 100	> 100										
O=C1CC2C(=O)N(Cc3ccccc3)C1C=C2S(=O)(=O)c1ccccc1 (configuration not stated)	> 100	> 100 µM	> 100 µM	> 100	> 100 µM	> 100 µM	> 100 µM	> 100	> 100										
CC(C)CCCC(C)[C@H]1CCC2[C@H]3C(CC[C@@]21C)[C@@]1(C)CCC=C[C@]12C[C@@H]2[C@@H]3O (some centres not stated)	> 100	> 100 µM	> 100 µM	> 100	> 100 µM	> 100 µM	> 100 µM	> 100	> 100										
COC(=O)CCC(=O)CC1CC(=O)C2CCCN12 (configuration not stated)	> 100	> 100 µM	> 100 µM	> 100	> 100 µM	> 100 µM	> 100 µM	> 100	> 100										
Cc1ccc(C2(O)CC(c3ccc([N+](=O)[O-])o3)=NN2C(=O)COc2ccc(Cl)cc2)cc1 (configuration not stated)	22.4	83.8 µM	51.7 µM	58.9	> 76.4 µM	17.9 µM	10.9 µM	6.52	15.3										
COC(=O)/C(C=O)=C/Sc1ccccc1	59.2	41 µM	65.8 µM	> 100	28.8 µM	42.9 µM	78.9 µM	> 100	42.9										
COC(=O)/C(C#N)=C1\CCC(O)N1 (configuration not stated)	> 100	> 100 µM	> 100 µM	> 100	> 100 µM	> 100 µM	> 100 µM	> 100	> 100										
COc1ccc2[nH]c3c4c(ccc3c2c1)C(=O)C=CC4=O	20.2	27 µM	20.8 µM	37.1	26.4 µM	24.4 µM	14.8 µM	2.79	15.6										71.5
COc1cc2ccc3c4cc(OC)c(OC(C)C)cc4cnc3c2cc1OC	> 100	> 100 µM	> 100 µM	> 100	> 100 µM	> 100 µM	> 100 µM	> 100	> 100										
CC1=NN(C(=O)CC(=O)N(C(=O)c2ccccc2Cl)c2ccc(C)cc2)C(=O)C1N=Nc1ccc([N+](=O)[O-])cc1 (configuration not stated)	> 100	> 60.5 µM	> 100 µM	> 100	> 100 µM	> 100 µM	> 100 µM	> 100	> 58										
COc1cc2cccc(N=Cc3cccc(OC)c3OC(C)C)c2cc1OC	66.9	38.7 µM	41 µM	> 100	70.2 µM	> 100 µM	31.1 µM		> 100										
C[C@@]12CCCc3coc(c31)C(=O)c1cc3c(cc12)C(=O)C=CC3=O	> 1	> 1 µM and 39.9 µM	> 1 µM and 41.8 µM	> 1	> 1 µM and 37.1 µM	> 1 µM and 38.6 µM	> 1 µM and 28.2 µM		> 1		> 1000	> 1000		> 1	> 1	> 1000			
O=C1[C@H]2ON(c3ccccc3)C(c3ccc(Cl)cc3)[C@H]2C(=O)N1c1ccc(Cc2ccc(N3C(=O)[C@@H]4ON(c5ccccc5)C(c5ccc(Cl)cc5)[C@@H]4C3=O)cc2)cc1 (some centres not stated)	> 100	> 100 µM	> 100 µM	> 100	> 100 µM	> 100 µM	> 100 µM	> 100	> 100										
O=C(Nc1cc(Cl)ccc1Cl)C(=O)C(c1cnc2ccccc2n1)[N+](=O)[O-] (configuration not stated)	> 100	> 100 µM	> 100 µM	> 100	> 100 µM	> 100 µM	> 100 µM	> 100	> 100										
